Laboratory results reported in patent US10473670B2 (University of Kentucky Research Foundation, priority 2016, dated 2019).
Entries after “also recorded” stand apart in the source; their conditions may differ.

How the values were obtained:
C57BL/6 mice [1] = test: Acute SR 48692 treatment: proximal intestinal TG content after olive oil gavage; type: in vivo; settings: 2.5 mg/kg ip 30 min before olive oil gavage
Text: (§1) FIGS. 13A-D show graphs and images illustrating that NT promotes intestinal cell lipid absorption or accumulation, while NT deficiency reduces intestinal lipid absorption A. Proximal intestines from mice given saline, olive oil, or olive oil+SR 48692 were collected and TG levels quantified as described above (n=8). Graph presents the fold change vs. control mice. * p<0.05 vs. control mice; † p<0.05 vs. mice with olive oil only. B. Male NT^+/+ and NT^−/− mice (n=4) on normal chow were fasted overnight. Mice were injected with either saline or SR 48692 (2.5 mg/kg, i.p). Thirty min after the injection, mice were given olive oil (10 μl/g) by oral gavage and then sacrificed. The proximal small bowel was excised and TG content measured. *p<0.05 vs. saline in NT^+/+ and NT^−/− mice; † p<0.05 vs. olive oil only in NT^+/+ mice; ‡ p<0.05 vs. olive oil only in NT^+/+ mice. C. Weekly body weight was measured in male wild type C57BL/6 mice fed HFD and treated with SR 48692 (2.5 mg/kg diluted in diH2O and administered by oral gavage twice a day) or vehicle (vehicle n=12; SR 48692 n=13). BW slopes were compared: * p<0.05 vehicle vs. SR treatment. D. Weekly food intake was measured in male wild type C57BL/6 mice (n=12-13) fed HFD and chronically treated with either SR 48692 or vehicle. […] All data are mean+/−SD. […]

C57BL/6 mice [2] = test: Chronic SR 48692 treatment of HFD-fed mice: body weight and food intake; type: in vivo; settings: wild type mice fed HFD
Text: FIGS. 13A-D show graphs and images illustrating that NT promotes intestinal cell lipid absorption or accumulation, while NT deficiency reduces intestinal lipid absorption A. Proximal intestines from mice given saline, olive oil, or olive oil+SR 48692 were collected and TG levels quantified as described above (n=8). Graph presents the fold change vs. control mice. * p<0.05 vs. control mice; † p<0.05 vs. mice with olive oil only. B. Male NT^+/+ and NT^−/− mice (n=4) on normal chow were fasted overnight. Mice were injected with either saline or SR 48692 (2.5 mg/kg, i.p). Thirty min after the injection, mice were given olive oil (10 μl/g) by oral gavage and then sacrificed. The proximal small bowel was excised and TG content measured. *p<0.05 vs. saline in NT^+/+ and NT^−/− mice; † p<0.05 vs. olive oil only in NT^+/+ mice; ‡ p<0.05 vs. olive oil only in NT^+/+ mice. C. Weekly body weight was measured in male wild type C57BL/6 mice fed HFD and treated with SR 48692 (2.5 mg/kg diluted in diH2O and administered by oral gavage twice a day) or vehicle (vehicle n=12; SR 48692 n=13). […] D. Weekly food intake was measured in male wild type C57BL/6 mice (n=12-13) fed HFD and chronically treated with either SR 48692 or vehicle. […]
All procedures were approved by the Institutional Animal Care and Use Committee of the University of Kentucky. […] Body weight and food intake were measured weekly. […]

AMPK [3] = test: Western blot of p-AMPK in proximal intestinal mucosa after olive oil gavage; type: in vivo; settings: mice after olive oil gavage, with or without SR 48692 pretreatment
Protocol: FIGS. 2A-M includes images and graphs illustrating NT deficiency reduces intestinal lipid absorption. A. (left panel) Fecal triglyceride (TG) was analyzed in male mice fed a high-fat diet (HFD) for 24 wks (n=3); * p=0.05 vs NT^+/+ mice; (right panel) Fecal weight was measured in male NT^+/+ and NT^−/− mice (n=7-9) fed either normal chow (NC) or HFD for 24 wks; there was no significant difference between genotypes. B. Oil red O (ORO) staining of proximal intestines from male mice (6-mo-old) under normal chow fed with or without olive oil by gavage after overnight fasting (n=3). C. Levels of ^13C18-oleic acid (OA) in male mice (5-mo-old) under normal chow fed with ^13C18-OA mixed in olive oil by gavage after an overnight fast was analyzed by nanospray FT-MS (n=3-4). Left panel, * p<0.05 vs. NT^+/+ mice. […] D. ORO staining of proximal intestines from male mice (5-mo-old) following gavage with or without olive oil plus NT after an overnight fast (left panel); TG was quantified (right panel) (n=5). * p<0.05 vs. Saline in NT^+/+ and NT^−/− mice, respectively; † p<0.05 vs. olive oil in NT^−/− mice; ‡ p<0.05 vs. olive oil in NT^+/+ mice. […] Densitometric quantification of p-AMPK was normalized to total AMPK and is presented as fold change vs. p-AMPK in NT^+/+ (right panel, n=9). * p<0.05 vs. NT^+/+. F. Protein extracts from mucosal scrapings of samples were analyzed by western blotting (left panel). […]

NT^+/+ and NT^−/− mice = test: Acute SR 48692 treatment repeated in NT+/+ and NT-/- mice: proximal intestinal TG; type: in vivo; settings: 2.5 mg/kg ip 30 min before olive oil
Text: as §1

AMPK [4] = test: Western blot of p-AMPK in FHs 74 Int cells; type: cell-based, human; settings: FHs 74 Int cells treated with oleate 1 h
Protocol: (§2) G. Human small intestinal cells (FHs74Int) (left panel) and RIE-1 cells (right panel) were treated with the indicated concentrations of oleate for 1 h and lysates were analyzed by western blotting. […] All data are mean+/−SD. Experiments in vitro were at least repeated three times.
(§3) Tissues and cells were lysed with lysis buffer (Cell Signaling Technology), and equal amounts of protein were resolved on 4-12% NuPAGE BisTris gels (Life Technologies) and electrophoretically transferred to polyvinylidene difluoride (PVDF) membranes; the membranes were incubated with primary antibodies overnight at 4° C. followed by secondary antibodies conjugated with horseradish peroxidase. Membranes were developed using chemiluminescence (ECL) Western Blotting System from GE Healthcare Life Science (Piscataway, N.J.) and Thermo Scientific (Waltham, Mass.).

AMPK [5] = test: Western blot of p-AMPK in RIE-1 cells; type: cell-based, rat; settings: RIE-1 cells treated with oleate 1 h
Protocol: as §2
All data are mean+/−SD. Experiments were repeated at least three times.
as §3

STC-1 cells = test: NT release from STC-1 cells (NT EIA); type: cell-based, mouse; settings: OA 0.25 mM, phorbol myristate acetate 100 nM
Text: FIGS. 15A-B show graphs and images illustrating that FFAR1 and FFAR4 agonists increase AMPK activity. A. NT IF (left panel), NT EIA (middle panel, *p<0.05 vs. control) and western blotting (right panel) of STC-1 cells. B. Real-time PCR. GAPDH was used as the internal control (BON cell expression was arbitrarily set at 1). All data are mean+/−SD.
FFAR1 (previously known as GPR40) and FFAR4 (previously known as GPR120) are medium- to long-chain FFA G-protein-coupled receptors that have been implicated in the regulation of energy homeostasis and hormone secretion.

[6] = test system: mTORC1 and ERK1/2 signaling; test: Western blot of p-S6K1 and p-ERK1/2 in BON cells; type: cell-based, human; settings: pretreatment with CC 10 μM, AICAR 1 mM 3 h
Protocol: FIGS. 16A-D show graphs and images illustrating Cross-talk of AMPK and mTORC1 signaling. A. Diagram of cross-talk of AMPK and mTORC1 signaling. B. Western blot analysis of BON cells treated with or without AICAR (left panel) or 1 mM AICAR and CC (10 μM) (right panel) for 3 h. C. NT EIA (upper panel) and western blotting (lower panel) on BON cells expressing control vector and myc-raptor S722A/S792A treated with AICAR (1 mM) for 3 h. D. NT EIA (upper panel) and western blotting (lower panel) on BON cells expressing control vector and NTC and TSC2 siRNA treated with AICAR (1 mM) for 3 h. *p<0.05 vs. control in vector, †p<0.05 vs. AICAR in vector (C); *p<0.05 vs. control in NTC siRNA, †p<0.05 vs. control in NTC siRNA, ‡ p<0.05 vs. AICAR in NTC siRNA (D). n=6. All data are mean+/−SD.
AMPK activation inhibits mTORC1 through raptor, a component of mTORC1, or TSC2, a negative regulator of mTORC1 signaling. […] Moreover, a stable BON overexpression cell line was generated with a mutant raptor vector in which both Ser722 and Ser792 (AMPK phosphorylation sites) are replaced by alanine. […] Together, these findings further indicate the interaction of AMPK, mTORC1 and ERK signaling in the regulation of NT secretion.

SMILES: COc1cccc(OC)c1-c1cc(C(=O)NC2(C(=O)O)C3CC4CC(C3)CC2C4)nn1-c1ccnc2cc(Cl)ccc12 (stereo not shown) [SR 48692]
- intestinal FA absorption following olive oil gavage (proximal intestine TG) (C57BL/6 mice [1]): decreased intestinal FA absorption
- body weight gain (C57BL/6 mice [2]; 2.5 mg/kg oral gavage twice a day for 13 weeks): significantly attenuated body weight gain
- food intake (cumulative and weekly) (C57BL/6 mice [2]; 2.5 mg/kg oral gavage twice a day, 2.5 mg/kg): without altering food intake; also recorded: did not show a significant difference
- p-AMPK expression in proximal intestine (AMPK [3]): restored the p-AMPK expression to control levels
- lipid absorption after olive oil administration (NT^+/+ and NT^−/− mice; NT-/- mice): did not further decrease lipid absorption
- intestinal FA absorption (as measured by TG accumulation) (NT^+/+ and NT^−/− mice; wild type (NT+/+) mice): inhibited intestinal FA absorption

SMILES: CCCCCCCC/C=C\CCCCCCCC(=O)[O-].[Na+] [oleate, Oleate sodium]
- p-AMPK (AMPK [4]): led to an increase in p-AMPK
- p-AMPK (AMPK [5]): led to an increase in p-AMPK

SMILES: CCCCCCCCCCCCCC(=O)O[C@@H]1[C@@H](C)[C@@]2(O)[C@@H](C=C(CO)C[C@]3(O)C(=O)C(C)=C[C@@H]23)[C@@H]2C(C)(C)[C@]12OC(C)=O [phorbol myristate acetate]
- NT release (STC-1 cells): stimulated NT release

SMILES: c1cc(-c2cnn3cc(-c4ccc(OCCN5CCCCC5)cc4)cnc23)ccn1 [compound C]
- effect of AICAR on p-S6K1 and p-ERK1/2 [6]: attenuated this effect
